Tests used:
Assay type in all cases: cell-based, murine
Malat1 mRNA = Malat1 mRNA knockdown in Neuro-2a cells (qRT-PCR); details: for Malat1 RNA still measurable: 20.000 nM Malat1 ASO alone or co-administered with 1 μM of the named molecule; for co-administration enhancement effect on Malat1 ASO efficacy: named molecule at 1 μM with titrated Malat1 ASO; for enhancing effect on Malat1 mRNA reduction in co-administration: named molecule titrated with fixed 200 nM Malat1 ASO
Procedure: Neuro-2a (murine neuroblastoma cells) were cultured in DMEM (PAN-Biotech GmbH) supplemented with 10% fetal bovine serum (FBS, PAN-Biotech GmbH) and Pen/Strep (PAN-Biotech GmbH). For experiments, Neuro-2a cells were harvested, resuspended at 60.000 cells/mL and seeded at a density of 36.000 cells/well or 6.000 cells/well for the 24- or 96-well plates (Greiner BioOne). Cells were incubated overnight at 37° C. Before the start of treatment, 210 µL or 35 μL medium was added per well, respectively, followed by the conjugates from a 10× concentrated stock solution in DPBS (PAN-Biotech GmbH). Plates were incubated for 72 hr at 37° C. before the cells of the 24-well plates were harvested for gene expression analysis and the cell viability was assessed on the 96-well plates.
(§1) Total RNA from cells was isolated using TRIzol™ Reagent (Thermo Scientific) according to the manufacturer's instruction. Conversion into cDNA was performed using iScript™ cDNA Synthesis Kit (BioRad) using standard protocols. Gene expression levels of the gene of interest (GOI) and levels of specific housekeeping genes were determined using quantitative real-time PCR assays (qRT-PCR) using iTaq™ Universal SYBR® Green Supermix (BioRad) and the Light Cycler 480 II (Roche Diagnostics) with specific DNA primers, listed in Table A3. Each analysis reaction was performed in triplicate. Analysis was done by the ΔCt method to determine GOI expression relative to 2 specific housekeeping control mRNAs. Results are expressed as % relative GOI expression levels after normalization to DPBS treated control cells.
(§2) Neuro-2a cells (murine neuroblastoma cell line) were cultured in DMEM (PAN-Biotech GmbH) supplemented with 10% fetal bovine serum (FBS, PAN-Biotech GmbH) and Pen/Strep (PAN-Biotech GmbH). For experiments, Neuro-2a cells were harvested, resuspended at 60.000 cells/mL and seeded at a density of 36.000 cells/well or 6.000 cells/well for the 24 or 96-well plates (Greiner BioOne). Cells were incubated overnight at 37° C. Before the start of treatment, either 210 μL or 35 μL media was added per well resp., followed by the compounds from a 10× concentrated stock solution in DPBS (PAN-Biotech GmbH). In the control wells, or when only one compound was applied in treatment, additional DPBS was added so that the final volume per well was 900 µL or 150 μL for the 24 or 96-well plates (wp), respectively. Plates were incubated for 72 hr at 37° C. before the cells of the 24 wp were harvested for gene expression analysis or exon skip/aberrant transcript analysis and the cell viability was assessed on the 96 wp.
as §1, with “LightCycler” for “Light Cycler”, “A6.” for “A3.”

Sod1 RNA transcripts = assay: Sod1 aberrant transcript / exon skip in Neuro-2a cells (PCR gel analysis)
Procedure: Neuro-2a (murine neuroblastoma cells) were cultured in DMEM (PAN-Biotech GmbH) supplemented with 10% fetal bovine serum (FBS, PAN-Biotech GmbH) and Pen/Strep (PAN-Biotech GmbH). For experiments Neuro-2a cells were harvested, resuspended at 70.000 cells/mL and seeded at a density of 42.000 cells/well or 7.000 cells/well for the 24 or 96-well plates (Greiner BioOne). Cells were incubated overnight at 37° C. Before the start of treatment 120 μL or 20 μL media was added per well resp., followed by both saponin and/or PMO from a 10× concentrated stock solution in DPBS (PAN-Biotech GmbH). […] Plates were incubated for 72 hr at 37° C. before the cells of the 24 wp were harvested for gene expression analysis and the cell viability was assessed on the 96 wp.
Total RNA from cells was isolated using TRIzol™ Reagent (Thermo Scientific) according to the manufacturer's instruction. […] The gene expression was determined on 50 ng cDNA using the SapphireAmp Fast PCR Master Mix (Takara) with specific DNA primers, listed in Table A4. The PCR product was separated on a 2% agarose gel and fragments were analysed on the ChemiDoc XRS+ (BioRad) using Image Lab software (BioRad). For quantification of the % exon skip, the signal intensity of the aberrant transcript(s) (Mm Sod1 448 bp and 378 bp was divided over the total signal intensity of the skipped fragment(s)+full length fragment (Mm Sod1 545 bp)×100. […]

Sod1 transcript = assay: Remaining full length Sod1 transcript in Neuro-2a cells (qRT-PCR); details: PMO without saponin component
Procedure: as §2, with “In the control wells, or when only one compound was applied in treatment, additional DPBS was added so that the final volume per well was 900 µL or 150 μL for the 24 or 96-well plates (wp), respectively.” left out
Total RNA from cells was isolated using TRIzol™ Reagent (Thermo Scientific) according to the manufacturer's instruction. […] Gene expression levels of the gene of interest (GOI) and levels of specific housekeeping genes were determined using quantitative real-time PCR assays (qRT-PCR) using iTaq™ Universal SYBR® Green Supermix (BioRad) and the LightCycler 480 II (Roche Diagnostics) with specific DNA primers, listed in Table A6. […] Results are expressed as % relative GOI expression levels after normalization to DPBS treated control cells.

Row | Compound | Malat1 RNA still measurable (Malat1 mRNA; 4320 min) | co-administration enhancement effect on Malat1 ASO efficacy (Malat1 mRNA) | enhancing effect on Malat1 mRNA reduction in co-administration (Malat1 mRNA) | other results
1 | C[C@H]1CC[C@]2(NC1)O[C@H]1C[C@H]3[C@@H]4CC[C@H]5C[C@@H](O[C@@H]6O[C@H](CO)[C@H](O[C@@H]7O[C@H](CO)[C@@H](O)[C@H](O[C@@H]8OC[C@@H](O)[C@H](O)[C@H]8O)[C@H]7O[C@@H]7O[C@H](CO)[C@@H](O)[C@H](O)[C@H]7O)[C@H](O)[C@H]6O)CC[C@]5(C)[C@H]4CC[C@]3(C)[C@H]1[C@@H]2C [tomatine] | 10-15% | not observed | no enhancing effect | 
2 | CC(=O)OC1C(C)OC(OC2C(C)OC(OC(=O)[C@]34CCC(C)(C)CC3C3=CCC5[C@@]6(C)CC[C@H](OC7OC(C(=O)O)C(O)C(OC8OCC(O)C(O)C8O)C7OC7OC(CO)C(O)C(O)C7O)[C@@](C)(/C=N/NC(=O)CCCCCN7C(=O)CC(SCCO)C7=O)C6CC[C@@]5(C)[C@]3(C)C[C@H]4O)C(OC3OC(C)C(OC4OCC(O)C(OC5OC(CO)C(O)C(O)C5O)C4O)C(O)C3O)C2O)C(O)C1OC1OCC(O)C(O)C1O (stereo partly drawn) [SO1861-AH-Block] |  |  | efficacious | concentration above which complete loss of Malat1 mRNA expression is achieved (Malat1 mRNA; titrated with fixed 200 nM Malat1 ASO): above 3200 nM
3 | CC1(C)[C@@H](O[C@H]2O[C@H](C(=O)O)[C@@H](O)[C@H](O)[C@H]2O[C@@H]2O[C@H](C(=O)O)[C@@H](O)[C@H](O)[C@H]2O)CC[C@]2(C)[C@H]3C(=O)C=C4[C@@H]5C[C@@](C)(C(=O)O)CC[C@]5(C)CC[C@@]4(C)[C@]3(C)CC[C@@H]12 [glycyrrhizin] |  |  | no enhancing effect | 
4 | SOD1 PMO: PMO targeting murine Sod1, SEQ ID: 20, GCCAGCCTAGGACCTACCTTGTGTA (all phosphorodiamidate morpholino (PMO)) |  |  |  | induction of aberrant Sod1 transcripts (Sod1 RNA transcripts; PMO alone, up to 50 μM PMO (FIG. 4)): did not induce any aberrant Sod1 transcripts; activity (aberrant transcript induction, nonsense mediated mRNA decay) (Sod1 RNA transcripts; without saponin component (FIG. 18C, 18D)): did not show any activity at any of the concentrations tested; reduction of full length Sod1 transcript (Sod1 transcript): not able to reduce transcript
5 | C[C@@H]1CC[C@@]2(OC1)O[C@H]1[C@@H](O)[C@H]3[C@@H]4CC[C@H]5C[C@@H](O[C@@H]6O[C@H](CO)[C@H](O[C@@H]7O[C@H](CO)[C@@H](O)[C@H](O[C@@H]8OC[C@@H](O)[C@H](O)[C@H]8O)[C@H]7O[C@@H]7O[C@H](CO)[C@H](O)[C@H](O[C@@H]8O[C@H](CO)[C@@H](O)[C@H](O)[C@H]8O)[C@H]7O)[C@H](O)[C@H]6O)[C@H](O)C[C@]5(C)[C@H]4CC[C@]3(C)[C@H]1[C@@H]2C [digitonin] | 10-15% | not observed |  | reduction in Malat1 mRNA (Malat1 mRNA; 10.000 nM of named molecule with 200 nM Malat1 ASO, 4320 min): approximately 70%
6 | C[C@H]1O[C@@H](O[C@H]2[C@@H](O)C[C@H](O[C@H]3[C@@H](O)C[C@H](O[C@H]4CC[C@@]5(C)[C@H](CC[C@@H]6[C@@H]5C[C@@H](O)[C@]5(C)[C@@H](C7=CC(=O)OC7)CC[C@]65O)C4)O[C@@H]3C)O[C@@H]2C)C[C@H](O)[C@@H]1O [digoxin] | 10-15% | not observed | no enhancing effect | 

— patent US20260284202A1, “CONJUGATES OF SAPONIN AND ANTISENSE OLIGONUCLEOTIDES FOR USE IN THE TREATMENT OF NEURODEGENERATIVE DISEASES” (priority 2023, published 2026)
